{"source": "paper PMC3131257", "about": "“Hypericum lanceolatum (Hypericaceae) as a potential source of new anti-malarial agents: a bioassay-guided fractionation of the stem bark” (Malaria Journal, 2011)", "key": {"[1]": {"test_system": "K1", "conditions": "against K1; cited from earlier work"}, "[2]": {"test_system": "neural cells", "conditions": "in vitro; cited from earlier work"}, "[3]": {"test_system": "CQ-sensitive T9-96 P. falciparum", "conditions": "betulinic acid from Uapaca nitida root bark; cited from earlier work"}, "[4]": {"test_system": "field isolate (SHF4) of Plasmodium falciparum", "experiment": "anti-plasmodial drug sensitivity assay, pLDH method, SHF4 field isolate", "format": "cell-based", "conditions": "for IC50: Plasmodium falciparum, pure compounds, pLDH assay", "procedure": "(§1) The W2mef (MRA-615) strain was ordered from the Malaria Research and Reference Reagent Resource Centre (MR4, Manassas, VA, USA), and maintained in continuous culture. The SHF4 field isolate previously isolated from a malaria patient in Buea in the South West region of Cameroon, had been stored in liquid nitrogen at the Biotechnology Unit, University of Buea.\n(§2) The field isolate and the laboratory strain of P. falciparum were grown and maintained in culture using the method of Trager and Jensen with some modification. All the chemicals except Albumax II (Gibco; Invitrogen, USA), were ordered from Sigma-Aldrich Inc (Germany). Cultures consisted of a 4% haematocrit suspension of O+ human erythrocytes in RPMI 1640 medium supplemented with a gentamicin solution at 0.01 mg/mL, 25 mM HEPES buffer, 25 mM NaHCO3, and 1% Albumax II. Cultures were fed with a gas mixture consisting of 5% CO2 and incubated at 37°C (CO2 incubator Heraeus, Hera cell 150; USA). The estimation of the parasitaemia as well as parasite visualization before incubation was done using both fluorescence (Acridine Orange) and normal light (Giemsa stain) microscopes.\n(§3) The drug sensitivity assay was carried out in 96-well microtitration plates as described by Desjardins et al with some modifications. All stock solutions were sterilized by passing them through a 0.2 μm syringe filter and stored at -20°C until required. Similarly, a 2 μg/mL stock solution of quinine dihydrochloride (Rotexmedica, Trittau, Germany) was prepared and used as positive control. The parasitaemia was measured using the parasite lactate dehydrogenase (pLDH) assay.\n(§4) The pLDH assay generates optical density (OD) values at various concentrations of the drug as raw data. OD values from control wells represent the maximum amount of pLDH produced by parasites and OD values from blank wells (containing a 4% suspension of non parasitized red blood cells in malaria culture medium) represented background pLDH activity. A 100% growth value, which corresponds to maximum LDH activity, was obtained by subtracting the mean OD value of blank wells from that of control wells. Likewise, the growth value at each concentration of the drug was obtained by adjusting OD values from drug-treated wells for background pLDH activity (parasite-free red blood cells). These values were then expressed as a percentage of the maximal growth value and plotted against corresponding concentrations of the drug using the software HN-NonLin V1.1 [14] to generate log dose-response curves from which the 50%, 90%, 95% and 99% Inhibitory Concentrations (IC50, IC90, IC95 and IC99 respectively) were obtained. Each product was tested in triplicate in each of the two separate experiments, giving a total of six repeats per product and per concentration tested. The IC50 values obtained from these replicates were pooled and expressed as geometric mean IC50 values and the different means compared among themselves by independent samples t-test using SPSS Statistics 17.0 (Chicago, USA)."}, "[5]": {"test_system": "CQ-resistant K1 P. falciparum", "conditions": "betulinic acid from Uapaca nitida root bark; cited from earlier work"}, "[6]": {"test_system": "LLC-MK2 monkey kidney epithelial cells", "experiment": "cytotoxicity on LLC-MK2 monkey kidney epithelial cells", "conditions": "pure compounds; five days incubation", "procedure": "(§5) The cytotoxicity profiles of the extracts and pure compounds were estimated against LLC-MK2 monkey kidney epithelial cells according to the procedure previously described with some modifications. Cells were cultured under the same conditions as P. falciparum. Cells were distributed in 96-well plates at 20,000 cells per well in 100 μL culture medium, and allowed to attach and become confluent, for 24h. The medium was then removed completely the next day and 100 μL of fresh medium was added to all the wells, followed by 100 μL of crude extract (1000 μg/mL) or pure compounds (200 μg/mL) added in triplicate in row H. A two folds serial dilution was made upward to obtain concentration range of 250 - 3.90 μg/ml (crude extract) or 50 - 0.78 μg/ml (pure compounds), cells at row A serving as control without drug. The plates were incubated for five days at 37°C in 5% CO2 in air. Cells concentration and viability in the presence of extracts or pure compounds were compared with that of control cultures without extracts."}, "[7]": {"test_system": "W2 strain of P. falciparum", "set-up": "method as in PMID 18239315", "conditions": "betulinic acid from Psorospermum glaberrimum; cited from earlier work"}, "[8]": {"test_system": "multidrug-resistant W2mef strain of P. falciparum", "experiment": "microbe, parasite or virus in culture", "format": "cell-based, Plasmodium falciparum", "procedure": "as §1, §2, §3, §4"}, "[9]": {"experiment": "cytotoxicity on LLC-MK2 monkey kidney epithelial cells", "conditions": "monkey, LLC-MK2 monkey kidney epithelial cells, CC50 on LLC-MK2, pure compounds; five days incubation", "procedure": "as §5"}, "[10]": {"test_system": "P. falciparum", "set-up": "method as in PMID 9581528", "conditions": "growth of P. falciparum; cited from earlier work"}, "[11]": {"conditions": "Plasmodium falciparum, read-out: IC50 on W2mef, pure compounds, pLDH assay"}, "[12]": {"conditions": "Plasmodium falciparum, read-out: IC50 on W2mef, pure compounds, values expressed in μg/mL (Table 2 footnote *, text b34)"}, "[13]": {"conditions": "read-out: IC50 on W2mef, pure compounds, pLDH assay"}}, "note": "Where a name gives a salt, the structure may show the parent alone. Read-outs that look alike come from different tables or passages of the source."}
{"molecule": "6-hydroxyluteolin-7-O-(1^2-a-rhamnoside", "values": [{"measurement": "IC50", "setting": "[1]", "result": 2.13, "unit": "µg/mL"}]}
{"molecule": "C=C(C)[C@@H]1CC[C@]2(C(=O)O)CC[C@]3(C)[C@H](CC[C@@H]4[C@@]5(C)CC[C@H](O)C(C)(C)[C@@H]5CC[C@]43C)[C@@H]12", "note": "[HLT1, 3-hydroxy-lup-20(29)-en-28-oic acid]", "values": [{"measurement": "cytotoxic activity against neural cells (in words)", "setting": "[2]", "result": "no significant cytotoxic activity"}, {"measurement": "IC50", "setting": "[3]", "result": 25.9, "unit": "µg/mL"}, {"measurement": "IC50", "setting": "[4]", "result": "5.6 ± 0.13", "unit": "µM"}, {"measurement": "IC50", "setting": "[5]", "result": 19.6, "unit": "µg/mL"}, {"measurement": "CC50 on LLC-MK2", "setting": "[6]", "result": "25.00 ± 0.00", "unit": "µg/mL"}, {"measurement": "IC50", "setting": "[7]", "result": 5.1, "unit": "µM"}, {"measurement": "IC50", "setting": "[8]; [11]", "result": "< 5", "unit": "µM"}, {"measurement": "IC50", "setting": "[8]; [12]", "result": "< 5", "unit": "µg/mL"}, {"measurement": "IC50", "setting": "[8]; [13]", "result": "4.5 ± 1.35", "unit": "µM"}]}
{"molecule": "O=C(c1cc(O)ccc1O)c1c(O)cccc1O", "note": "[HLT2, 2,2',5,6'-tetrahydroxybenzophenone]", "values": [{"measurement": "IC50", "setting": "[4]", "result": "13.4 ± 0.16", "unit": "µM"}, {"measurement": "CC50 at 5 days", "setting": "[9]", "result": "> 100", "unit": "µg/mL"}, {"measurement": "IC50", "setting": "[8]; [11]", "result": "55.1 ± 0.93", "unit": "µM"}]}
{"molecule": "COc1ccc2c(=O)c3cccc(O)c3oc2c1", "note": "[HLT3, 5-hydroxy-3-methoxyxanthone]", "values": [{"measurement": "IC50", "setting": "[4]", "result": "1.43 ± 0.48", "unit": "µM"}, {"measurement": "CC50 at 5 days", "setting": "[9]", "result": "> 100", "unit": "µg/mL"}, {"measurement": "IC50", "setting": "[8]; [11]", "result": "< 5", "unit": "µM"}, {"measurement": "IC50", "setting": "[8]; [12]", "result": "< 5", "unit": "µg/mL"}, {"measurement": "IC50", "setting": "[8]; [13]", "result": "3.26 ± 0.08", "unit": "µM"}]}
{"molecule": "COc1cccc2c(=O)c3ccc(O)cc3oc12", "note": "[HLT4, 3-hydroxy-5-methoxyxanthone]", "values": [{"measurement": "IC50", "setting": "[4]", "result": "34.09 ± 0.12", "unit": "µM"}, {"measurement": "anti-plasmodial activity (in words)", "setting": "[4]; against the field isolate", "result": "inactive"}, {"measurement": "CC50 at 5 days", "setting": "[9]", "result": "10 to 30", "unit": "µg/mL"}, {"measurement": "CC50 on LLC-MK2", "setting": "[6]", "result": "12.50 ± 0.00", "unit": "µg/mL"}, {"measurement": "IC50", "setting": "[8]; [11]", "result": "33.84 ± 0.2", "unit": "µM"}, {"measurement": "anti-plasmodial activity (in words)", "setting": "[8]; against W2mef", "result": "inactive"}]}
{"molecule": "C=C[C@H]1C[N@@]2CC[C@H]1C[C@H]2[C@H](O)c1ccnc2ccc(OC)cc12", "note": "[QN, quinine dihydrochloride, reference compound]", "values": [{"measurement": "IC50", "setting": "[4]", "result": "0.14 ± 0.05", "unit": "µM"}, {"measurement": "IC50", "setting": "[8]; [11]", "result": "0.27 ± 0.04", "unit": "µM"}, {"measurement": "IC50", "setting": "[8]; Plasmodium falciparum, read-out: IC50 on W2mef, sub-extracts and fractions, pLDH assay", "result": "0.27 ± 0.04", "unit": "µg/mL"}]}
{"molecule": "garciniaxanthone", "values": [{"measurement": "IC50", "setting": "[10]", "result": 0.96, "unit": "µg/mL"}]}
